# Data from ChEMBL document CHEMBL1157453, “Chrobisiamone A, a new bischromone from Cassia siamea and a biomimetic transformation of 5-acetonyl-7-hydroxy-2-methylchromone into cassiarin A” (Bioorg Med Chem Lett, 2008).
# System: Plasmodium falciparum
# Assay: Antiplasmodial activity against Plasmodium falciparum 3D7
# Assay type: functional, organism-based
row,SMILES,IC50 [µg/mL]
1,Cc1cc2cc(=O)cc3oc(C)cc(o1)c23 [ANHYDROBARAKOL],7.8
2,CC(=O)Cc1cc(O)cc2c1C(=O)CC(C)(Cc1cc(=O)c3c(CC(C)=O)cc(O)cc3o1)O2 (stereo not drawn) [CHROBISIAMONE A],2.6
3,CC(=O)Cc1cc(O)cc2oc(C)cc(=O)c12,4.5
